# Data taken from article PMC4138103 (PLoS ONE, 2014).
# Where two headings read alike, the source gives them in different places.
# System: Sprague-Dawley rats
# Test: Retinoid analyses in liver, serum and kidney
# Type: in vivo, Rattus norvegicus
# Design: key to Kidney Retinyl esters, Dose response / Liver All-trans RA, Dose response / Kidney All-trans RA, Dose response / Serum Retinol, Dose response: D: significant dose response (for results, see Table 2); T: significant trend
# Settings: for Emax: Rattus norvegicus; for Kidney All-trans RA / Kidney Retinol / Kidney Retinyl esters / Liver 9-cis-4o-13,14-dh RA / Liver All-trans RA / Liver Retinol / Liver Retinyl esters: group mean, N=5
# Description: Retinoids in liver, serum, and kidney were analyzed according to Schmidt et al.. The polar retinoids 9-cis-retinoic acid (9-cis-RA), 13-cis-retinoic acid (13-cis-RA), 13-cis-4-oxo-retinoic acid (13-cis-4-o-RA), 9-cis-4-oxo-13,14-dihydro-retinoic acid (9-cis-4-o-13,14-dh-RA), all-trans retinoic acid (all-trans RA) and the apolar retinoids retinol and retinyl palmitate were extracted by a single liquid-extraction, separated from each other via solid-phase extraction using an aminopropyl phase, and then injected onto two different HPLC systems that were coupled with UV detection. […] The limits of detection (LOD) for all-trans RA and 9c-4o-13,14-dh-RA were 0.7 and 1.0 pmol/g tissue, and 0.3 and 0.6 pmol/ml serum, respectively. Retinol and retinyl palmitate were separated on a J'sphere ODS-H80 (4.6×150 mm, 4 µm particle size) obtained from YMC (Schermbeck, Germany), and were detected at 325 nm. The LOD for retinol and retinyl palmitate were 5.6 and 5.5 pmol/g tissue, and 4.2 and 4.2 pmol/ml serum, respectively.
# Data were also analyzed using the BMD method, which is based on dose-response modeling of the full data set using a nested family of exponential and Hill models. The analyses were done on data of males and females combined, using sex as a covariate. […] In that case, different Critical Effect Doses (CEDs) and CEDs at the lowest bound of the confidence interval (CED-L) were generated for each sex. If no difference between sexes is detected, a CED and CED-Ls for the combined data is generated. However, this was also done if the curve fits are close, and separate analyses for males and females were then performed manually. CEDs and CED-Ls were calculated at the predefined Critical Effect Size (CES) of 5% (EFSA standard) or 10%.
# [1] = females, total dose 0-1700 mg/kg bw
# [2] = females, total dose 10 mg/kg bw
# [3] = females, total dose 30 mg/kg bw
# [4] = females, total dose 100 mg/kg bw
# [5] = females, total dose 300 mg/kg bw
# [6] = females, total dose 1000 mg/kg bw
# [7] = females, total dose 1700 mg/kg bw
structure (smiles),measurement,setting,value
"Clc1cc(Cl)c(-c2cc(Cl)c(Cl)c(Cl)c2Cl)cc1Cl [PCB 180, 2,2′,3′,4,4′,5,5′-heptachlorobiphenyl]",Emax,"F, model E4, controls vs high dose according to the fitted model, read-out: Maximum response, Liver 9c-4o-13,14-dh-RA amount",-70.3%
same,Emax,"F, model E4, controls vs high dose according to the fitted model, read-out: Maximum response, Liver 9c-4o-13,14-dh-RA concentration",-78.2%
same,Emax,"females, controls vs high dose, fitted model, read-out: Kidney all-trans RA amount, Maximum response",16.5%
same,Emax,"females, controls vs high dose, fitted model, read-out: Kidney all-trans RA concentration, Maximum response",19.9%
same,Emax,"females, controls vs high dose, fitted model, read-out: Kidney retinol amount, Maximum response",26.9%
same,Emax,"females, controls vs high dose, fitted model, read-out: Kidney retinol concentration, Maximum response",27.8%
same,Emax,"females, controls vs high dose, fitted model, read-out: Liver 9c-4o-13,14-dh-RA amount, Maximum response",-70.3%
same,Emax,"females, controls vs high dose, fitted model, read-out: Liver 9c-4o-13,14-dh-RA conc., Maximum response",-78.2%
same,Emax,"females, controls vs high dose, fitted model, read-out: Liver retinol concentration, Maximum response",-42.9%
same,Emax,"females, controls vs high dose, fitted model, read-out: Liver retinyl esters amount, Maximum response",-29%
same,Emax,"females, controls vs high dose, fitted model, read-out: Liver retinyl esters concentration, Maximum response",-50.9%
same,Emax,"females, controls vs high dose, fitted model, read-out: Serum retinol concentration, Maximum response",23%
same,Emax,"males, controls vs high dose, fitted model, read-out: Kidney retinol amount, Maximum response",50.4%
same,Emax,"males, controls vs high dose, fitted model, read-out: Kidney retinol concentration, Maximum response",52%
same,Emax,"males, controls vs high dose, fitted model, read-out: Kidney retinyl esters amount, Maximum response",260%
same,Emax,"males, controls vs high dose, fitted model, read-out: Kidney retinyl esters concentration, Maximum response",254%
same,Emax,"males, controls vs high dose, fitted model, read-out: Liver all-trans RA amount, Maximum response",93%
same,Emax,"males, controls vs high dose, fitted model, read-out: Liver all-trans RA concentration, Maximum response",21%
same,Emax,"males, controls vs high dose, fitted model, read-out: Liver retinol amount, Maximum response",-18.1%
same,Emax,"males, controls vs high dose, fitted model, read-out: Liver retinol concentration, Maximum response",-46.8%
same,Emax,"males, controls vs high dose, fitted model, read-out: Liver retinyl esters amount, Maximum response",-45.2%
same,Emax,"males, controls vs high dose, fitted model, read-out: Liver retinyl esters concentration, Maximum response",-62.8%
same,Emax,"model E2, controls vs high dose according to the fitted model, read-out: Maximum response, Kidney retinol amount",49%
same,Emax,"model E2, controls vs high dose according to the fitted model, read-out: Maximum response, Kidney retinol concentration",51.9%
same,Emax,"model E2, controls vs high dose according to the fitted model, read-out: Maximum response, Liver all-trans RA amount",92.7%
same,Emax,"model E2, controls vs high dose according to the fitted model, read-out: Maximum response, Liver all-trans RA concentration",20.7%
same,Emax,"model E2, controls vs high dose according to the fitted model, read-out: Maximum response, Liver retinol amount",-18.5%
same,Emax,"model E2, controls vs high dose according to the fitted model, read-out: Maximum response, Liver retinyl esters amount",-45.7%
same,Emax,"model E4, controls vs high dose according to the fitted model, read-out: Maximum response, Kidney retinyl esters amount",253%
same,Emax,"model E4, controls vs high dose according to the fitted model, read-out: Maximum response, Kidney retinyl esters concentration",256%
same,Emax,"model E4, controls vs high dose according to the fitted model, read-out: Maximum response, Liver retinol concentration",-44.6%
same,Emax,"model E4, controls vs high dose according to the fitted model, read-out: Maximum response, Liver retinyl esters concentration",-63.4%
same,"Liver 9c-4o-13,14-dh-RA concentration, max. decrease",females,78%
same,"Liver retinol concentration, max. decrease",females,43%
same,"Dose response, Kidney All-trans RA",[1],"D, T"
same,"Dose response, Kidney Retinol",[1],"D, T"
same,"Dose response, Liver 9-cis-4o-13,14-dh RA",[1],"D, T"
same,"Dose response, Liver Retinyl esters",[1],"D, T"
same,"Kidney All-trans RA, Dose response",[1],D
same,"Kidney Retinol, Dose response",[1],"D, T"
same,"Liver 9-cis-4o-13,14-dh-RA, Dose response",[1],"D, T"
same,"Liver Retinol, Dose response",[1],"D, T"
same,"Liver Retinyl esters, Dose response",[1],"D, T"
same,"Serum Retinol, Dose response",[1],D
same,Kidney All-trans RA,"females, total dose 3 mg/kg bw",19.8 pmol
same,Kidney Retinol,"females, total dose 3 mg/kg bw",8.72 nmol
same,Kidney Retinyl esters,"females, total dose 3 mg/kg bw",0.77 nmol
same,"Liver 9-cis-4o-13,14-dh RA","females, total dose 3 mg/kg bw",887 pmol
same,Liver All-trans RA,"females, total dose 3 mg/kg bw",267 pmol
same,Liver Retinol,"females, total dose 3 mg/kg bw",0.26 µmol
same,Liver Retinyl esters,"females, total dose 3 mg/kg bw",11.1 µmol
same,Kidney All-trans RA,[2],18.2 pmol
same,Kidney Retinol,[2],8.07 nmol
same,Kidney Retinyl esters,[2],0.88 nmol
same,"Liver 9-cis-4o-13,14-dh RA",[2],665 pmol
same,Liver All-trans RA,[2],239 pmol
same,Liver Retinol,[2],0.23 µmol
same,Liver Retinyl esters,[2],9.31 µmol
same,Kidney All-trans RA,[3],19.9 pmol
same,Kidney Retinol,[3],9.25 nmol
same,Kidney Retinyl esters,[3],0.82 nmol
same,"Liver 9-cis-4o-13,14-dh RA",[3],691 pmol
same,Liver All-trans RA,[3],231 pmol
same,Liver Retinol,[3],0.25 µmol
same,Liver Retinyl esters,[3],8.81 µmol
same,Kidney All-trans RA,[4],20.6 pmol
same,Kidney Retinol,[4],8.42 nmol
same,Kidney Retinyl esters,[4],0.71 nmol
same,"Liver 9-cis-4o-13,14-dh RA",[4],543 pmol
same,Liver All-trans RA,[4],252 pmol
same,Liver Retinol,[4],0.24 µmol
same,Liver Retinyl esters,[4],9.73 µmol
same,Kidney All-trans RA,[5],20.2 pmol
same,Kidney Retinol,[5],8.45 nmol
same,Kidney Retinyl esters,[5],0.73 nmol
same,"Liver 9-cis-4o-13,14-dh RA",[5],357 pmol
same,Liver All-trans RA,[5],332 pmol
same,Liver Retinol,[5],0.24 µmol
same,Liver Retinyl esters,[5],8.90 µmol
same,Kidney All-trans RA,[6],21.5 pmol
same,Kidney Retinol,[6],8.95 nmol
same,Kidney Retinyl esters,[6],0.74 nmol
same,"Liver 9-cis-4o-13,14-dh RA",[6],226 pmol
same,Liver All-trans RA,[6],296 pmol
same,Liver Retinol,[6],0.24 µmol
same,Liver Retinyl esters,[6],8.28 µmol
same,Kidney All-trans RA,[7],22.0 pmol
same,Kidney Retinol,[7],10.3 nmol
same,Kidney Retinyl esters,[7],0.75 nmol
same,"Liver 9-cis-4o-13,14-dh RA",[7],261 pmol
same,Liver All-trans RA,[7],289 pmol
same,Liver Retinol,[7],0.21 µmol
same,Liver Retinyl esters,[7],6.90 µmol
same,"Kidney all-trans RA amount, CED","females, CES 5%, total dose based",494 mg/kg bw
